One assay concerns hM4Di. The experiment in a line: Chemogenetic inhibition of AgRP neurons with C21. It is filed as in vivo, mouse. The following applies: C21 0.5 mg/kg by osmotic pump, TET3 knockdown mice. The text has this: To determine the relevance of activated AgRP neurons from TET3 knockdown, the chemogenetic tool of designer receptors exclusively activated by designer drugs (DREADDs) was used. AAV-sgTet3 was co-injected with an AAV containing a Cre-dependent hM4Di-mCherry transgene (AAV-hM4Di) (Krashes, M. J. et al., 2011, Journal of Clinical Investigations, 121:1424-1428) bilaterally into the ARC of Cas9+ mice, followed by implantation of an osmotic pump to infuse DREADD agonist 21 (C21) (Thompson, K. J. et al., 2018, ACS Pharmacology & Translational Science, 1:61-72) or saline (FIG. 9K). AgRP neuron-specific expression of hM4Di was confirmed by immunofluorescence (FIG. 11).
Three days after bilateral ARC co-injection with AAV-sgTet3 and AAV-h4MDi, a mini-osmotic pump (model 1007D, Alzet) was implanted subcutaneously. The osmotic pump was filled with either sterile saline solution or DREADD agonist compound 21 (C21) dihydrochloride (0.5 mg/kg, HB6124-25 mg, Hello Bio). Food intake measurement and ITT were performed at day 5 and day 9 post-injection, respectively. For food intake assays, food pellets were weighed at 10:00 each day for 3 continuous days and an average of three-day food intake was calculated.

For the next assay, the system named is estrogen receptor. Conditions: cited from earlier work.
Assay [1] has as its system TET3 and CD163. Briefly: TET3 expression and TET3/CD163 double-positive cells in human MDMs. It is filed as cell-based. The following applies: for TET3 expression: TGF-β1 10 ng/ml or MCP1 200 ng/ml; for number of TET3/CD163 double-positive cells: TGF-β1 10 ng/ml, 48 h. As to the method: To prepare CM-HSC and CM-Endo, LX-2 and human endometriosis cells were seeded in 24-well plates (2.5×10^5 cells/well) with their respective growth media and allowed to grow to ~50% confluency. Cells were then washed with PBS and incubated with fresh growth media (500 μl/well) for an additional 24 h. Cell supernatant (CM-HSC/CM-Endo) was collected and immediately used to treat MDMs after 1:1 dilution with their respective growth media. In the control group, only respective growth media were used.
After wash in cold PBS, adherent cells were fixed with 4% paraformaldehyde in PBS for 15 min and permeabilized with 0.4% TritonX-100 for 15 min. Cells were blocked in 5% donkey serum/PBS-T at RT for 30 min and quickly washed once with PBS-T before antibody incubation. Primary antibodies were diluted in 2% donkey serum/PBS-T. For CD163/TET3 double staining, cells were incubated with anti-TET3 (GeneTex, GTX121453, diluted at 1:400 for MDMs; Millipore Sigma, ABE290, diluted at 1:500 for mouse peritoneal macrophages) and anti-CD163 (Abcam, ab156769, diluted at 1:400 for MDMs; Santa Cruz Biotechnology, sc-58965, diluted at 1:200 for peritoneal macrophages) overnight at 4 °C. The next day, cells were washed 3 times with PBS-T and incubated in 0.4% Triton X-100/PBS with donkey anti-Rabbit IgG Fluor 594 (Invitrogen, A-21207, diluted at 1:500) and goat anti-Mouse lgG Fluor 488 (Invitrogen, A-11029, diluted at 1:500) for 1 h at RT. Cells were covered with antifade mounting medium with DAPI (Vector laboratories, H-2000), scoped using a Keyence BZ-X700 fluorescence microscope.
Total RNAs were extracted from cells using PureLink RNA Mini Kit. 0.5-1 μg total RNA was reverse transcribed to cDNA in a reaction volume of 20 μL using PrimeScript RT Reagent Kit. Real-time quantitative PCR was performed in a 15 μL reaction volume containing 0.5-1 μL of cDNA using SsoAdvanced Universal SYBR Green Supermix in a Bio-Rad iCycler. Gene expression levels were normalized against RPLP0.

In assay [2] the test system is TET3 and CD163. Briefly: TET3 expression in mouse peritoneal macrophages. It is filed as cell-based. The following applies: wild-type mouse peritoneal macrophages. The procedure: Peritoneal macrophages were collected from the peritoneal cavity of WT or Mye-Tet3 ko mice by injecting 10 mL of PBS followed by gentle abdominal massaging for 5 min. Cells were pelleted by centrifugation at 1500×g at 4 °C for 8 min. To remove red blood cells, cells were resuspended in […] (Biolegend, 420302, diluted to 1×) and allowed to stand for 5 min, followed by addition of PBS to stop the reaction and twice wash with PBS by centrifugation. Macrophages were enriched by plating cells in RPMI 1640 supplemented with 10% FBS and 1% Anti-Anti for 2 h at 37 °C in a 5% humidified CO2 tissue culture incubator. Non-adherent cells were then removed with three PBS washes.
After wash in cold PBS, adherent cells were fixed with 4% paraformaldehyde in PBS for 15 min and permeabilized with 0.4% TritonX-100 for 15 min. Cells were blocked in 5% donkey serum/PBS-T at RT for 30 min and quickly washed once with PBS-T before antibody incubation. […] Cells were covered with antifade mounting medium with DAPI (Vector laboratories, H-2000), scoped using a Keyence BZ-X700 fluorescence microscope.

The subject of the next assay is IL-1β. Conditions: phase III clinical trial; cited from earlier work.
The next assay has as its system IL-6 receptor. Conditions: rats; cited from earlier work.

“Also recorded” adds a separate entry of the source.

As for `Cl.Cl.c1ccc2c(c1)N=C(N1CCNCC1)c1ccccc1N2` [C21], in the assay with hM4Di, the hyperphagia result is “suppressed hyperphagia” and the systemic insulin resistance entry was “reversed systemic insulin resistance”.

Regarding `CCCCN(C)C(=O)CCCCCCCCCC[C@@H]1Cc2cc(O)ccc2[C@H]2CC[C@]3(C)[C@@H](O)CC[C@H]3[C@H]12` [ICI 164,384], in the assay on estrogen receptor, the estrogen receptor degradation result is on record as “induces its degradation without affecting its mRNA expression”.

For the molecule MCP1: MCP1, also known as CCL2, in the assay on TET3 and CD163 [1], the TET3 expression entry was “resulted in similar effects”. Also, the “TET3 expression and TET3/CD163 double-positive cells” value with TET3 and CD163 [2] was “increase TET3 expression and TET3/CD163 double-positive cells”.

As for “TGF-β1: purified TGF-β1 (PeproTech, 100-21)”, in the assay with TET3 and CD163 [1], the TET3 expression entry is given as “increased TET3 expression; also recorded: increased TET3 mRNA”; the “number of TET3/CD163 double-positive cells” value is “increased TET3 expression and the number of TET3/CD163 double-positive cells; also recorded: increase in the number of TET3/CD163 double-positive cells”. Also, in the assay with TET3 and CD163 [1] (listed as TGF-b1), the TET3 expression result was “increased TET3 expression both at mRNA and protein levels”; the “number of TET3/CD163 double-positive cells” value was “increase in the number of TET3/CD163 double-positive cells”. The “TET3 expression and TET3/CD163 double-positive cells” value in the assay with TET3 and CD163 [2] was “increase TET3 expression and TET3/CD163 double-positive cells”.

Consider “canakinumab: a human monoclonal antibody specific for IL-1β”, for which the “incident NSCLC and lung cancer mortality” value in the assay on IL-1β was “substantially reduced incident NSCLC and lung cancer mortality in a dose-dependent manner”.

For the molecule “tocilizumab: an anti-IL-6 receptor monoclonal antibody”, in the assay on IL-6 receptor, the endometriosis burden entry is given as “significantly reduced endometriosis burden”.

Source of the values: patent US20260355199A1, “COMPOSITIONS AND METHODS FOR TREATING OR PREVENTING NONALCOHOLIC STEATOHEPATITIS (NASH), ANOREXIA, DEPRESSION, ENDOMETRIOSIS, AND OTHER DISEASES OR DISORDERS” (priority 2022, published 2026).
